Here are results for three compounds from ChEMBL document CHEMBL1126161, “3,4-Dihydroquinolin-2(1H)-ones as combined inhibitors of thromboxane A2 synthase and cAMP phosphodiesterase” (J Med Chem, 1992).

Test [1] has as its system Rattus norvegicus. Kind of test: Antihypertensive activity in conscious spontaneously hypertensive rat (SHR), percent change in Systolic blood pressure (SBP) after 4 hr at 10 mg/kg peroral dose. Conditions: route oral. The class given is functional.
Test [2] relates to Rattus norvegicus. Kind of test: Antihypertensive activity in conscious spontaneously hypertensive rat (SHR), percent change in Systolic blood pressure (SBP) after 1 hr at 10 mg/kg peroral dose. The class given is functional. Conditions: route oral.
Test [3] deals with Rattus norvegicus. Kind of test: Antihypertensive activity in conscious spontaneously hypertensive rat (SHR), percent change in Systolic blood pressure (SBP) after 2 hr at 10 mg/kg peroral dose. It is filed as functional. Conditions: route oral.
The test system of test [4] is Rattus norvegicus. Kind of test: Antihypertensive activity in conscious spontaneously hypertensive rat (SHR), percent change in heart rate (beats/min) after 1 hr at 10 mg/kg peroral dose. The class given is functional. Conditions: route oral.
Test [5] has as its system Rattus norvegicus. Kind of test: Antihypertensive activity in conscious spontaneously hypertensive rat (SHR), percent change in heart rate (beats/min) after 2 hr at 10 mg/kg peroral dose. Conditions: route oral. The class given is functional.
In test [6] the test system is Rattus norvegicus. Kind of test: Antihypertensive activity in conscious spontaneously hypertensive rat (SHR), percent change in heart rate (beats/min) after 4 hr at 10 mg/kg peroral dose. It is filed as functional. Conditions: route oral.
The species named for test [7] is Homo sapiens. Kind of test: Inhibition of ADP-induced aggregation of human PRP in the absence of pig aortal microsomes (PAM). It is filed as functional.
Test [8] is filed under the species Homo sapiens. Kind of test: In vitro inhibition of ADP-induced aggregation of human PRP in the presence of pig aortal microsomes (PAM). It is filed as functional.
The species entered for test [9] is Homo sapiens. Kind of test: Inhibition of [14C]arachidonic acid induced platelet aggregation at 1 uM (Control TXB2 = 14.9+/-2.5). It is filed as functional.
For test [10], the species on record is Homo sapiens. Kind of test: Inhibition of [14C]arachidonic acid induced platelet aggregation at 10 uM (Control TXB2 = 14.9+/-2.5). The class given is functional.
Test [11] relates to Mus musculus. Kind of test: Protection against mortality in pulmonary thromboembolism model in mice at 3 mg/kg. The class given is functional.
The subject of test [12] is Mus musculus. Kind of test: Protection against mortality in pulmonary thromboembolism model in mice at 1 mg/kg. It is filed as functional.
Test [13] deals with Mus musculus. Kind of test: Protection against mortality in pulmonary thromboembolism model in mice at 30 mg/kg. The class given is functional.
For test [14], the system named is Mus musculus. Kind of test: Protection against mortality in pulmonary thromboembolism model in mice at 10 mg/kg. It is filed as functional.
Test [15] has as its system Rattus norvegicus. Kind of test: Antihypertensive activity in conscious spontaneously hypertensive rat (SHR), percent change in Systolic blood pressure (SBP) after 2 hr. The class given is functional.
Test [16] concerns Rattus norvegicus. Kind of test: Antihypertensive activity in conscious spontaneously hypertensive rat (SHR), percent change in heart rate (beats/min) after 1 hr. It is filed as functional.
Test [17] deals with Rattus norvegicus. Kind of test: Antihypertensive activity in conscious spontaneously hypertensive rat (SHR), percent change in heart rate (beats/min) after 2 hr. The class given is functional.
In test [18] the test system is Rattus norvegicus. Kind of test: Antihypertensive activity in conscious spontaneously hypertensive rat (SHR), percent change in heart rate (beats/min) after 4 hr. It is filed as functional.
The subject of test [19] is Rattus norvegicus. Kind of test: Antihypertensive activity in conscious spontaneously hypertensive rat (SHR), percent change in Systolic blood pressure (SBP) after 1 hr. It is filed as functional.
Test [20] deals with Rattus norvegicus. Kind of test: Effect of TXA2 synthase inhibitor (compound) on serum TXB2 level in rats at 50 mg/kg po, after 2 hr. The class given is functional.
Test [21] has as its system Rattus norvegicus. Kind of test: Ex vivo inhibition of blood platelet aggregation in rats at 50 mg/kg peroral dose after 3 hr. The class given is functional. Conditions: route oral.
The test system of test [22] is Rattus norvegicus. Kind of test: Ex vivo inhibition of blood platelet aggregation in rats at 50 mg/kg peroral dose after 5 hr. It is filed as functional. Conditions: route oral.
Test [23] deals with Rattus norvegicus. Kind of test: Ex vivo inhibition of blood platelet aggregation in rats at 50 mg/kg peroral dose after 8 hr. The class given is functional. Conditions: route oral.
A further test concerns the target T1, Thromboxane-A synthase (Homo sapiens, UniProt P24557).
T1 sequence (P24557 whole entry): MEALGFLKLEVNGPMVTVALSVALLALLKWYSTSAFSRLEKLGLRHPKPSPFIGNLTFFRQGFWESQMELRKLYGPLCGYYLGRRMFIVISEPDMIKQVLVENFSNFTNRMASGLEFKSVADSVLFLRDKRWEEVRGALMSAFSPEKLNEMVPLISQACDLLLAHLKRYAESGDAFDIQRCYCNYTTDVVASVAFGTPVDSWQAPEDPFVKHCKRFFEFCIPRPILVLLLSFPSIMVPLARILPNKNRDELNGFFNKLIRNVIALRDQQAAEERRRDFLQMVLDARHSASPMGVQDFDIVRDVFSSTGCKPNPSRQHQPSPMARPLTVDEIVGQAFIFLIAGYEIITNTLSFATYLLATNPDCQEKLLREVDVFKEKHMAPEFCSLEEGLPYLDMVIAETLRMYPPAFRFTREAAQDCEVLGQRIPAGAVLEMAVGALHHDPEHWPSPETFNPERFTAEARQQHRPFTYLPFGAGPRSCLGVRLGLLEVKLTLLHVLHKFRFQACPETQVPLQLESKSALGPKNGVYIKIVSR
Kind of test: Compound was evaluated for the inhibition of human blood platelet, thromboxane A2 synthase.

Another test deals with Phosphodiesterase 3 (Homo sapiens, UniProt Q14432+Q13370). Kind of test: Inhibition of human blood platelet c-AMP phosphodiesterase.
For test [24], the species on record is Homo sapiens. Kind of test: Ratio of IC50(PDE)/IC50(TXA2). It is filed as functional.
Test [25] is filed under the species Homo sapiens. Kind of test: Ratio of IC50(w/oPAM)/IC50(w/PAM). It is filed as functional.
Test [26] concerns Rattus norvegicus. Kind of test: Antihypertensive activity in conscious spontaneously hypertensive rat (SHR), percent change in Systolic blood pressure (SBP) after 4 hr. It is filed as functional.
For test [27], the species on record is Homo sapiens. Kind of test: Inhibition of [14C]arachidonic acid induced platelet TXB2 formation at 0.1 uM (Control TXB2 = 14.9+/-2.5).
The species entered for test [28] is Homo sapiens. Kind of test: Inhibition of [14C]arachidonic acid induced 6-keto-PGF1-alpha formation at 10 uM (Control 6-keto-PGF1-alpha = 1.45+/-0.6).
For test [29], the species on record is Homo sapiens. Kind of test: Inhibition of [14C]arachidonic acid conversion to 6-keto-PGF1-alpha in platelets at 1 uM (Control 6-keto-PGF1-alpha = 1.45+/-0.6).
Test [30] is filed under the species Homo sapiens. Kind of test: Inhibition of [14C]arachidonic acid induced platelet aggregation at 50 uM (Control 6-keto-PGF1-alpha = 1.45+/-0.6). The class given is functional.
For test [31], the species on record is Homo sapiens. Kind of test: Inhibition of [14C]arachidonic acid induced platelet aggregation at 50 uM (Control TXB2 = 14.9+/-2.5). The class given is functional.
The species entered for test [32] is Mus musculus. Kind of test: Time course of protection against mortality in a pulmonary thromboembolism model in mice after -1h. The class given is functional.
For test [33], the species on record is Mus musculus. Kind of test: Time course of protection against mortality in a pulmonary thromboembolism model in mice after -3h. The class given is functional.
The species entered for test [34] is Mus musculus. Kind of test: Time course of protection against mortality in a pulmonary thromboembolism model in mice after -5h. The class given is functional.
For test [35], the species on record is Mus musculus. Kind of test: Time course of protection against mortality in a pulmonary thromboembolism model in mice after -7h. The class given is functional.
For test [36], the system named is Mus musculus. Kind of test: Protection against mortality in pulmonary thromboembolism model in mice at 9 mg/kg. It is filed as functional.
The subject of test [37] is Rattus norvegicus. Kind of test: Ex vivo inhibition of blood platelet aggregation in rats at 100 mg/kg peroral dose after 3 hr. The class given is functional. Conditions: route oral.
The test system of test [38] is Rattus norvegicus. Kind of test: Ex vivo inhibition of blood platelet aggregation in rats at 100 mg/kg peroral dose after 5 hr. The class given is functional. Conditions: route oral.
Test [39] deals with Rattus norvegicus. Kind of test: Ex vivo inhibition of blood platelet aggregation in rats at 100 mg/kg peroral dose after 8 hr. It is filed as functional. Conditions: route oral.
Test [40] has as its system Rattus norvegicus. Kind of test: Effect of TXA2 synthase inhibitor (compound) on serum TXB2 level in rats at 50 mg/kg po, after 2 hr. The class given is functional.
The test system of test [41] is Mus musculus. Kind of test: Protection against mortality in pulmonary thromboembolism model in mice at 12 mg/kg. It is filed as functional.
The species entered for test [42] is Homo sapiens. Kind of test: Inhibition of [14C]arachidonic acid induced TXB2 formation at 5 uM (Control TXB2 = 14.9+/-2.5).

Consider `Cc1[nH]c(=O)c(C#N)cc1-c1ccncc1` [MILRINONE], for which the “Change systolic BP” value in the test on Rattus norvegicus [1] is -47%; with Rattus norvegicus [2], -65%; in the test with Rattus norvegicus [3] it was -54%. Further, the results for the “Change in heart rate” value in the test with Rattus norvegicus [4], in the test on Rattus norvegicus [5] and with Rattus norvegicus [6] were 11%, 36% and 45%, respectively.
Turning to `O=C1CCc2cc(-c3cccnc3)ccc2N1`, the IC50 was found to be 27 µM in the test filed under Homo sapiens [7], 0.54 µM in the test listed under Homo sapiens [8], 0.54 µM on Thromboxane-A synthase and 4.4 µM on Phosphodiesterase 3. In the test listed under Homo sapiens [9], this compound registered a TXB2 level at 1 µM of 14.8%. For the same compound, the TXB2 level at 10 µM in the test listed under Homo sapiens [10] was determined as 4.5%. The compound further had a survival at 3 mg/kg in the test on Mus musculus [11] of 40%. In the test with Mus musculus [12], this compound displayed a survival at 1 mg/kg of 20%. Also, the survival at 30 mg/kg in the test on Mus musculus [13] came to 50%. In the test with Mus musculus [14], this compound registered a survival at 10 mg/kg of 40%. Besides, the entries for the “Change systolic BP” value with Rattus norvegicus [15], in the test on Rattus norvegicus [19] and in the test on Rattus norvegicus [26] were -28%, -42% and -22%, respectively. The “Change in heart rate” value in the test with Rattus norvegicus [16] was 13%; in the test with Rattus norvegicus [17], 18%; with Rattus norvegicus [18], 13%. Further, the inhibition in vivo at 50 mg/kg with Rattus norvegicus [20] is 94%; in the test with Rattus norvegicus [21], 94.7%; with Rattus norvegicus [22], 53.2%; with Rattus norvegicus [23], 4.7%. Besides, the Ratio in the test filed under Homo sapiens [24] was found to be 8.1; in the test filed under Homo sapiens [25], 50. This compound registered a TXB2 level at 0.1 µM in the test listed under Homo sapiens [27] of 21.1%. Further, in the test listed under Homo sapiens [28], the 6-keto-PGF1α level at 10 µM worked out at 31.9%. The 6-keto-PGF1α level at 1 µM in the test listed under Homo sapiens [29] is 7.7%.
In the test listed under Homo sapiens [30], `Cl.O=C(O)c1ccc(OCCn2ccnc2)cc1` [DAZOXIBEN HYDROCHLORIDE] yielded a 6-keto-PGF1α level at 50 µM of 25.2%. Further, in the test filed under Homo sapiens [31], the inhibition at 50 µM is 1.5%. In addition, the Survival in the test listed under Mus musculus [32] is 40%; in the test filed under Mus musculus [33], 20%; in the test filed under Mus musculus [34], 20%; in the test filed under Mus musculus [35] it was 10%. In the test on Mus musculus [36], this compound registered a survival at 9 mg/kg of 40%. The same compound displayed a survival at 1 mg/kg in the test with Mus musculus [12] of 20%. The same compound showed a survival at 30 mg/kg in the test with Mus musculus [13] of 50%. Moreover, the inhibition in vivo at 100 mg/kg in the test on Rattus norvegicus [37] was 23.4%; with Rattus norvegicus [38], 24.6%; with Rattus norvegicus [39], 50.9%. Also, in the test with Rattus norvegicus [40], 50 mg/kg produced 74% inhibition in vivo. Moreover, the survival at 12 mg/kg in the test with Mus musculus [41] turned out to be 50%. Also, the TXB2 level at 5 µM in the test listed under Homo sapiens [42] was found to be 2.4%.
